Test results from ChEMBL document CHEMBL4837230, “Thiophene-2-carboxamide derivatives of anthraquinone: A new potent antitumor chemotype” (Eur J Med Chem, 2021).
Activity calls are given as the source filed them. The rule behind the calls is not given here.

How the values were obtained:
[1] = system: K562; assay: Induction of cell cycle arrest in human K562 cells assessed as increase in accumulation at sub-G1 phase at 5 uM after 24 hrs by propidium iodide staining based flow cytometric analysis (reference value: 8.4%); type: functional
[2] = system: K562; assay: Induction of cell cycle arrest in human K562 cells assessed as increase in accumulation at sub-G1 phase at 2.5 uM after 48 hrs by propidium iodide staining based flow cytometric analysis (reference value: 8.4%); type: functional
[3] = system: K562; assay: Induction of cell cycle arrest in human K562 cells assessed as increase in accumulation at sub-G1 phase at 0.5 uM after 48 hrs by propidium iodide staining based flow cytometric analysis (reference value: 8.4%); type: functional
[4] = system: HL-60; assay: Cytotoxicity in human HL-60 cells assessed as reduction in cell viability incubated for 72 hrs by MTT assay; type: functional, cell-based; details: HL-60, 72 h
[5] = system: HeLa; assay: Cytotoxicity in human HeLa cells assessed as reduction in cell viability incubated for 72 hrs by MTT assay; type: functional, cell-based
[6] = system: U-937; assay: Cytotoxicity in human U-937 cells assessed as reduction in cell viability incubated for 72 hrs by MTT assay; type: functional, cell-based; details: U-937, 72 h
[7] = Cytotoxicity in human K562/4 cells assessed as reduction in cell viability incubated for 72 hrs by MTT assay; type: functional, cell-based; details: K562/4, 72 h
[8] = Resistance index, ratio of IC50 for cytotoxicity against p53 knock out human HCT-116 cells to IC50 for cytotoxicity against human HCT-116 cells; type: functional
[9] = Resistance index, ratio of IC50 for cytotoxicity against human K562/4 cells to IC50 for cytotoxicity against human K562 cells; type: functional
[10] = system: K562; assay: Cytotoxicity in human K562 cells assessed as reduction in cell viability at 0.5 uM incubated for 72 hrs by propidium iodide staining based flow cytometric analysis; type: functional
[11] = system: K562; assay: Cytotoxicity in human K562 cells assessed as reduction in cell viability at 2.5 uM incubated for 72 hrs by propidium iodide staining based flow cytometric analysis; type: functional
[12] = system: K562; assay: Cytotoxicity in human K562 cells assessed as reduction in cell viability at 2.5 uM incubated with compound for 30 mins followed by cell washing and measured after 72 hrs by propidium iodide staining based flow cytometric analysis; type: functional; details: 0.5 h
[13] = system: K562; assay: Cytotoxicity in human K562 cells assessed as reduction in cell viability at 0.5 uM incubated with compound for 120 mins followed by cell washing and measured after 72 hrs by propidium iodide staining based flow cytometric analysis; type: functional; details: 2 h
[14] = system: DNA; assay: Binding affinity to pBR322 DNA (unknown origin) at 20 uM after 30 mins by electrophoretic mobility shift assay; type: nucleic-acid assay
[15] = biological target: T1, DNA topoisomerase 1 (Homo sapiens) (UniProt P11387); assay: Inhibition of topoisomerase 1 (unknown origin) assessed as relaxation of supercoiled plasmid pBR322 DNA at 1 to 5 uM incubated for 30 mins by electrophoresis; details: dose 1-5 µM
T1 sequence (whole entry): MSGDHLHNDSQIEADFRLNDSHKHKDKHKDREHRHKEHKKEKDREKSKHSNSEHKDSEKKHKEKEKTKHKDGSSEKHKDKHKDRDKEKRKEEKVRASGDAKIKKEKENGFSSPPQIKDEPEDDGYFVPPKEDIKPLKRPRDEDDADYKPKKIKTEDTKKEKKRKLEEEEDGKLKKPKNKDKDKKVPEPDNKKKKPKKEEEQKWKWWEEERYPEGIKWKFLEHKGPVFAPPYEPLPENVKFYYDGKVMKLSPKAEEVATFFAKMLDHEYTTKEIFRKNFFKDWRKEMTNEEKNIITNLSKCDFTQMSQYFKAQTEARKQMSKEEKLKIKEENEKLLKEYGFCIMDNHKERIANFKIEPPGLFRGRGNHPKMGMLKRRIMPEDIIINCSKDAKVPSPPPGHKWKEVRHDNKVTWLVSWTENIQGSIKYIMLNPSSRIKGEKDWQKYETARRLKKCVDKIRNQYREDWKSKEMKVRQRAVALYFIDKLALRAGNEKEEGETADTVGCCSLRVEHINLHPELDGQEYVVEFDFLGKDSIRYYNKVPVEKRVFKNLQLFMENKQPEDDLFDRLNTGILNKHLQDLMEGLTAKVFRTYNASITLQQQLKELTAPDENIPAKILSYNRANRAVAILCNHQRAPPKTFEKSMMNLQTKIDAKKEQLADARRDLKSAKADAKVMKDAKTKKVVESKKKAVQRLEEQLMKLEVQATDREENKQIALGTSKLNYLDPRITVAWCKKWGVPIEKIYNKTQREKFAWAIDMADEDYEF

[16] = system: K562; assay: Induction of cell cycle arrest in human K562 cells assessed as increase in accumulation at G2/M phase at 2.5 uM by flow cytometric analysis (reference value: 11.8%); type: functional
[17] = system: K562; assay: Induction of cell cycle arrest in human K562 cells assessed as increase in accumulation at S phase at 2.5 uM after 2 hrs by flow cytometric analysis (reference value: 23.1%); type: functional
[18] = system: K562; assay: Induction of cell cycle arrest in human K562 cells assessed as increase in accumulation at G2/M phase at 2.5 uM after 2 hrs by flow cytometric analysis (reference value: 15.2%); type: functional
[19] = system: K562; assay: Induction of cell cycle arrest in human K562 cells assessed as increase in accumulation at G2/M phase at 2.5 uM after 4 hrs by flow cytometric analysis (reference value: 19.7%); type: functional
[20] = Drug localization in cytoplasm of mouse NIH3T3 cells at 1 uM incubated for 5 to 60 mins by laser confocal microscopy; type: ADME, cell-based; details: nih3t3, 1 µM, time 5-60 min
[21] = Drug localization in lysosome of mouse NIH3T3 cells at 1 uM incubated for 60 mins by lyso-tracker red based confocal microscopic method; type: ADME, cell-based; details: nih3t3, 1 h
[22] = Drug localization in mitochondria of mouse NIH3T3 cells at 1 uM measured after 60 mins by MitoTracker red based confocal microscopic method; type: ADME; details: nih3t3, 1 h
[23] = system: K562; assay: Induction of apoptosis in human K562 cells assessed as viable cells after 3 hrs by Annexin V-[…]/PI double staining based flow cytometric analysis (reference value: 91%); type: functional
[24] = system: K562; assay: Induction of apoptosis in human K562 cells assessed as late apoptotic cells after 3 hrs by Annexin V-APC/PI double staining based flow cytometric analysis (reference value: 2.6%); type: functional
[25] = system: K562; assay: Induction of apoptosis in human K562 cells assessed as early apoptotic cells after 24 hrs by Annexin V-APC/PI double staining based flow cytometric analysis (reference value: 0.1%); type: functional
[26] = system: K562; assay: Induction of apoptosis in human K562 cells assessed as necrotic cells after 24 hrs by Annexin V-APC/PI double staining based flow cytometric analysis (reference value: 6.3%); type: functional
[27] = system: K562; assay: Induction of apoptosis in human K562 cells assessed as activation of casapse-3 cleavage at 2.5 uM measured after 6 hrs by Western blot analysis; type: functional, cell-based
[28] = system: K562; assay: Induction of apoptosis in human K562 cells assessed as activation of casapse-9 cleavage at 2.5 uM measured after 6 hrs by Western blot analysis; type: functional, cell-based
[29] = system: K562; assay: Cytotoxicity against human K562 cells in presence of NAC; type: functional, cell-based
[30] = Drug localization in mitochondria of mouse NIH3T3 cells at 1 uM measured after 5 mins by MitoTracker red based confocal microscopic method; type: ADME; details: nih3t3, 5 min

Activity [14]: inactive | inhibition [15]: inactive | Drug uptake [20]: Active | Drug uptake [21]: Active | Drug uptake [22]: Active | Drug uptake [30]: Not Active
Compound: N[C@H]1CCN(C(=O)c2cc3c(O)c4c(c(O)c3s2)C(=O)c2ccccc2C4=O)C1
Activity [1]: 78.4% | Activity [2]: 84.5% | Activity [3]: 33.2% | IC50 [4]: 300 nM | IC50 [5]: 400 nM | IC50 [6]: 200 nM | IC50 [7]: 400 nM | Ratio [8]: 1 | Ratio [9]: 1.3 | Activity [10]: 77.6% | Activity [11]: 94.8% | Activity [12]: 67.4% | Activity [13]: 8.7% | Activity [16]: 14% | Activity [17]: 27.8% | Activity [18]: 15.9% | Activity [19]: 17.3% | Activity [23]: 47.9% | Activity [24]: 13.2% | Activity [25]: 0.1% | Activity [26]: 48.8% | Activity [27]: Active | Activity [28]: Active | Activity [29]: Active
